Laboratory results published in patent US20140235585A1, “SUBSTITUTED DIARYL DERIVATIVES AS SPHINGOSINE RECEPTOR MODULATORS” (ALLERGAN, INC., priority 2013, published 2014).

Target: T1, human S1P1 receptor (Homo sapiens, UniProt P21453)
T1 construct: expressed in transfected cells; membranes from cells stably expressing the S1P1 receptor
Assay: GTP γ35S binding assay for S1P1 activity
Assay type: biochemical
Conditions: Activity potency: S1P1 receptor from GTP γ35S; membranes of cells stably expressing the S1P1 receptor; agonist-induced binding
Method: Compounds were tested for S1P1 activity using the GTP γ^35S binding assay. These compounds may be assessed for their ability to activate or block activation of the human S1P1 receptor in cells stably expressing the S1P1 receptor. GTP γ^35S binding was measured in the medium containing (mM) HEPES 25, pH 7.4, MgCl2 10, NaCl 100, dithitothreitol 0.5, digitonin 0.003%, 0.2 nM GTP γ^35S, and 5 μg membrane protein in a volume of 150 μl. Test compounds were included in the concentration range from 0.08 to 5,000 nM unless indicated otherwise. Membranes were incubated with 100 μM 5′-adenylylimmidodiphosphate for 30 min, and subsequently with 10 μM GDP for 10 min on ice. Drug solutions and membrane were mixed, and then reactions were initiated by adding GTP γ^35S and continued for 30 min at 25° C. Reaction mixtures were filtered over Whatman GF/B filters under vacuum, and washed three times with 3 mL of ice-cold buffer (HEPES 25, pH7.4, MgCl2 10 and NaCl 100). Filters were dried and mixed with scintillant, and counted for ^35S activity using a β-counter. Agonist-induced GTP γ^35S binding was obtained by subtracting that in the absence of agonist. Binding data were analyzed using a non-linear regression method. In case of antagonist assay, the reaction mixture contained 10 nM S1P in the presence of test antagonist at concentrations ranging from 0.08 to 5000 nM.

T1 sequence (P21453 whole entry): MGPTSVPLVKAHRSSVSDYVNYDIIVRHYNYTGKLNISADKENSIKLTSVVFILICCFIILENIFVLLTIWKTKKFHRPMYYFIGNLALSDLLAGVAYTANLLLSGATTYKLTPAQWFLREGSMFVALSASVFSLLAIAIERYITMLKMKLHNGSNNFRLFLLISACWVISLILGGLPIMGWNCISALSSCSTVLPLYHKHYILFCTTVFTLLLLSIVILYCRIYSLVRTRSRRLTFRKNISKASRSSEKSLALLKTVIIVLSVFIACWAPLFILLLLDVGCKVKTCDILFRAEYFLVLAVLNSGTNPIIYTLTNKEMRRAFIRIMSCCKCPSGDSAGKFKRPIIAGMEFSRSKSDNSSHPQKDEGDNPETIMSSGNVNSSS

Compound | EC50 [µM]
O=P(O)(O)CCCNCc1ccc(CC/N=c2\scc(-c3ccccc3)n2-c2ccccc2)cc1 [Compound 1, (3-{[4-(2-{[(2Z)-3,4-diphenyl-1,3-thiazol-2(3H)-ylidene]amino}ethyl)benzyl]amino}propyl)phosphonic acid] | 0.031
O=C(O)CCNCc1ccc(CC/N=c2\scc(-c3ccccc3)n2-c2ccccc2)cc1 [Compound 2, 3-{[4-(2-{[(2Z)-3,4-diphenyl-1,3-thiazol-2(3H)-ylidene]amino}ethyl)benzyl]amino}propanoic acid] | 0.658
O=P(O)(O)CCCNCc1ccc(CCSc2ncc(-c3ccccc3)n2-c2ccccc2)cc1 [Compound 3, {3-[(4-{2-[(1,5-diphenyl-1H-imidazol-2-yl)thio]ethyl}benzyl)amino]propyl}phosphonic acid] | 0.086
